Measurements: the supplement of paper PMC10307832

Tests used:
Test in all cases: relative viability (nuclei count vs DMSO), 5 days (fraction); higher = more cells survive
[1] = compound: Nc1nc(Nc2ccc3c(c2)CC[C@@H](N2CCCC2)CC3)nn1-c1cc2c(nn1)-c1ccccc1CCC2 [Bemcentinib] + CS(=O)(=O)N1CCN(Cc2cc3nc(-c4cccc5[nH]ncc45)nc(N4CCOCC4)c3s2)CC1 [Pictilisib] (partner 1 µM)
How it was run: (§1)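 The day after seeding in 1536-well plates, lung cancer cell lines were treated by pin tool with a single drug, or with a fixed anchor-drug dose together with five library-drug doses (not always all listed) in √10 steps. After 5 days, a combined fix-and-stain solution (final 0.05% Triton X-100, 1% formaldehyde, 1 ug/ml Hoechst) was added. Nuclei counted on 4× images gave relative viability as treated counts over vehicle counts, reported as the median of duplicate plates.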

[2] = compound: CNC(=O)c1ccccc1Sc1ccc2c(/C=C/c3ccccn3)n[nH]c2c1 [Axitinib] + CS(=O)(=O)N1CCN(Cc2cc3nc(-c4cccc5[nH]ncc45)nc(N4CCOCC4)c3s2)CC1 [Pictilisib] (partner 1 µM)
How it was run: as §1

[3] = compound: CC1=CC=C(C=C1)C(=O)CN2C3=C(CCCC3)SC2=N [Pifithrin_alpha] + CS(=O)(=O)N1CCN(Cc2cc3nc(-c4cccc5[nH]ncc45)nc(N4CCOCC4)c3s2)CC1 [Pictilisib] (partner 1 µM)
How it was run: as §1

[4] = compound: CC1=CC=C(C=C1)C(=O)CN2C3=C(CCCC3)SC2=N [Pifithrin_alpha] + Nc1ncn([C@H]2C[C@H](O)[C@@H](CO)O2)c(=O)n1 [Decitabine] (partner 2 µM)
How it was run: as §1

Cell Line | relative viability ([1]; first compound 0.04 µM) | relative viability ([1]; first compound 0.1265 µM) | relative viability ([1]; first compound 0.4 µM) | relative viability ([1]; first compound 1.265 µM) | relative viability ([1]; first compound 4 µM) | relative viability ([2]; first compound 0.005 µM) | relative viability ([2]; first compound 0.01581 µM) | relative viability ([2]; first compound 0.05 µM) | relative viability ([2]; first compound 0.1581 µM) | relative viability ([2]; first compound 0.5 µM) | relative viability ([3]; first compound 1 µM) | relative viability ([3]; first compound 3.162 µM) | relative viability ([3]; first compound 10 µM) | relative viability ([3]; first compound 31.62 µM) | relative viability ([3]; first compound 100 µM) | relative viability ([4]; first compound 1 µM) | relative viability ([4]; first compound 3.162 µM) | relative viability ([4]; first compound 10 µM) | relative viability ([4]; first compound 31.62 µM) | relative viability ([4]; first compound 100 µM)
SK-LU-1 | 0.557 | 0.572 | 0.619 | 0.587 | 0.679 | 0.553 | 0.569 | 0.558 | 0.567 | 0.659 | 0.523 | 0.526 | 0.615 | 0.451 | 0.45 | 0.646 | 0.763 | 0.622 | 0.535 | 0.698
NCI-H23 | 0.443 | 0.503 | 0.541 | 0.453 | 0.476 | 0.535 | 0.574 | 0.505 | 0.477 | 0.508 | 0.491 | 0.459 | 0.491 | 0.343 | 0.365 | 0.317 | 0.316 | 0.317 | 0.283 | 0.337
A-427 | – | 0.752 | 0.723 | 0.635 | 0.663 | 0.672 | 0.496 | 0.77 | 0.705 | 0.679 | 0.722 | 0.629 | 0.666 | 0.522 | 0.657 | 0.485 | 0.582 | 0.543 | 0.485 | 0.531
NCI-H2009 | 0.753 | 0.928 | 0.855 | 0.914 | 0.888 | 0.875 | 0.877 | 1 | 0.868 | 1.04 | 0.658 | 0.78 | 0.816 | 0.365 | 0.594 | 0.361 | 0.349 | 0.404 | 0.344 | 0.409
UMC-11 | 0.615 | 0.929 | 0.902 | 0.585 | 0.85 | 0.818 | 0.82 | 0.857 | 0.835 | 0.627 | 0.775 | 0.802 | 0.888 | 0.604 | 1.03 | 0.551 | 0.601 | 0.597 | 0.525 | 0.595
A549 | 0.524 | 0.445 | 0.579 | 0.534 | 0.494 | 0.482 | 0.587 | 0.48 | 0.461 | 0.601 | 0.703 | 0.586 | 0.435 | 0.434 | 0.342 | – | 0.249 | 0.215 | 0.207 | 0.327
NCI-H596 | 0.374 | 0.443 | 0.379 | 0.421 | 0.403 | 0.352 | 0.359 | 0.417 | 0.379 | 0.364 | 0.354 | 0.349 | 0.379 | 0.342 | 0.392 | 0.89 | 1.15 | 1.12 | 1.07 | 1.09
LOU-NH91 | 0.498 | 0.526 | 0.556 | 0.524 | 0.483 | 0.528 | 0.529 | 0.557 | 0.544 | 0.52 | 0.473 | 0.476 | 0.444 | 0.442 | 0.371 | 0.758 | 0.79 | 0.808 | 0.705 | 0.742
HOP-62 | 0.661 | 0.82 | – | 0.712 | 0.92 | 0.679 | 0.861 | 0.735 | 0.792 | 0.583 | 0.376 | 0.822 | 0.875 | 0.342 | 0.804 | 0.233 | 0.167 | 0.232 | 0.218 | 0.263
NCI-H1993 | 0.833 | 0.853 | 0.834 | 0.904 | 0.777 | 0.763 | 0.952 | 0.805 | 0.772 | 0.781 | – | 0.747 | 0.8 | 0.673 | 0.846 | 0.514 | 0.494 | 0.609 | 0.467 | 0.505
